Measured values taken from ChEMBL document CHEMBL1130538, “Catalytic mechanism of KDO8P synthase: synthesis and evaluation of a putative reaction intermediate” (Bioorg Med Chem Lett, 1997).

Tests used:
[1] = Half-life was determined at pD 7.0 and 25 degree Centigrade; type: ADME; conditions: pH 7
[2] = Half-life was determined at pD 7.0 and 37 degree Centigrade; type: ADME; conditions: pH 7
[3] = The inhibitory activity against KDO 8-P synthase was determined; parameters: species or system Escherichia coli

half-life [1]: 4.7 h | half-life [2]: 2.5 h | Ki [3]: 35 µM
SMILES: O=C(O)C1(OP(=O)(O)O)CC(O)C(O)C([C@H](O)COP(=O)(O)O)O1 (stereo partly drawn)
